Structures can show the parent of a compound that is named as a salt. Where two headings read alike, the source gives them in different places.

We go through 13 molecules from US5972963A, “3-aryl-2-(1-substituted 4-piperidinyl)-1,1-dioxo-3H-benzo[D]isothiazoles and related compounds” (Hoechst Marion Roussel, Inc., priority 1997, dated 1999).

The subject of assay [1] is norepinephrine (NE) uptake. To be noted: literature; cited from earlier work.
The subject of assay [2] is norepinephrine (NE) uptake, rat whole brain synaptosomes. Description: Inhibition of [^3 H]-Norepinephrine Uptake in Rat Whole Brain or Hypothalamic Synaptosomes. Type of assay: biochemical. To be noted: at 3.16 μmn. The method, then:
Inhibition of [^3 H]-Norepinephrine Uptake in Rat Whole Brain or Hypothalamic Synaptosomes
This assay is used as a biochemical screen for potential antidepressants which block norepinephrine uptake.
(§1) A. Animals: Male CR Wistar rats (100-125 g).
3. L(-)-Norepinephrine bitartrate is obtained from Sigma Chemical Co. A 0.1 mM stock solution is made up in 0.01 N HCl. This is used to dilute the specific activity of theradiolabeled NE.
4. Levo-[Ring-2,5,6-^3 H]-Norepinephrine (40-50 Ci/mmol) is obtained from New England Nuclear.
The final desired concentration of [^3 H]-NE in the assay is 50 nM. The dilution factor is 0.8. Therefore, the KHBB is made up to contain 62.5 nM [^3 H]-NE.
(§2) 5. For most assays, a 1 mM stock solution of the test compound is made up in a suitable solvent and serially diluted such that the final concentration in the assay ranges from 2×10^-8 to 2×10^-5 M. Seven concentrations are used for each assay. Higher or lower concentrations may be used depending on the potency of the compound.
Male Wistar rats are decapitated and the brain rapidly removed. Either whole brain minus cerebella or hypothalamus is weighed and homogenized in 9 volumes of ice-cold 0.32 M sucrose using a Potter-Elvejhem homogenizer. Homogenization should be done with 4-5 up and down strokes at medium speeds to minimize synaptosome lysis. TH homogenate is centrifuged at 1000 g for 10 minutes at 0°-4° C. The supernatant (S1) is decanted and is used for uptake experiments.
(§3) 20 μl Vehicle or appropriate drug concentration
Tubes are incubated at 37° C., under a 95% O2 /5% CO2 atmosphere for 5 minutes. For each assay, 3 tubes are incubated with 20 μl of vehicle at 0° C. in a ice bath. After incubation all tubes are immediately centrifuged at 4000 g for 10 minutes. The supernatant fluid is aspirated and the pellets dissolved by adding 1 ml of solubilizaer (Triton X-100+50% EtOH, 1:4 v/v). The tubes are vigorously vortexed, decanted into scientillation vials, and counted in 10 ml of Liquiscint scintillation countering cocktail. Active uptake is the difference between cpm at 37° C. and 0C. The percent inhibition at each drug concentration is the mean of three determinations IC50 values are derived from log-probit analysis.

The subject of assay [3] is serotonin (5HT) uptake, rat whole brain synaptosomes. The experiment in a line: Inhibition of [^3 H]-Serotonin Uptake in Rat Whole Brain Synaptosomes. Type of assay: biochemical. To be noted: at 3.16 μmn. The procedure: Inhibition of [^3 H]-Serotonin Uptake in Rat Whole Brain Synaptosomes
This assay is used a biochemical screen for compounds which block serotonin (5 HT) uptake, which may be useful as antidepressants and for the treatment of personality disorders such as obsessive compulsive disorder.
as §1
3. Serotonin creatinine SO4 is obtained from Sigma Chemical Co. A 0.1 mM stock solution is made up in 0.01 N HCl. This is used to dilute the specific activity of radiolabeled 5 HT.
4. 5-[1,2-^3 H(N)]-Hydroxytryptamine creatinine sulfate (Serotonin), specific activity 20-30 Ci/mmol is obtained from New England Nuclear.
The final desired concentration of ^3 H-5 HT in the assay is 50 nM. The dilution factor is 0.8. Therefore, the KHBB is made up to contain 62.5 nM [^3 H]-5 HT.
5. For most assays, a 1 mM solution of the test compound is made up in suitable solvent and serially diluted such that the final concentration in the assay ranges from 2×10^-8 to 2×10^-5 M. Seven concentrations are used for each assay. Higher or lower concentrations may be used depending on the potency of the compound.
Male Wistar rats are decapitated and the brain rapidly removed. Whole brain minus cerebella is weighed and homogenized in 9 volumes of ice-cold 0.32 M sucrose using a Potter-Elvejhem homogenizer. Homogenization should be done with 4-5 up and down strokes at medium speeds to minimize synaptosome lysis. The homogenate is centrifuged at 1000 g for 10 minutes at 0°-4° C. The supernatant (S1) is decanted and is used for uptake experiments.
800 μl KHBB +[^3 H]-5 HT.
as §3
(§4) Tubes are incubated at 37° C. under a 95% O2 /5% CO2 atmosphere for 5 minutes. For each assay, 3 tubes are incubated with 20 μl of vehicle at 0° C. in an ice bath. After incubation all tubes are immediately centrifuged at 4000 g for 10 minutes. The supernatant fluid is aspirated and the pellets dissolved by adding 1 ml of solubilizer (Triton X-100+50% EtOH, 1:4 v/v). The tubes are vigorously vortexed, decanted into scintillation vials, and counted in 10 ml of Liquiscint scintillation counting cocktail. Active uptake is the difference between cpm at 37° C. and 0° C. The percent inhibition at each drug concentration is the mean of three determinations. IC50 values are derived from log-probit analysis.

Assay [4] deals with dopamine (DA) uptake, rat striatal synaptosomes. Description: Inhibition of ^3 H-Dopamine Uptake in Rat Striatal Synaptosomes. Type of assay: biochemical. To be noted: at 3.16 μmn; head: whole brain synaptosomes, protocol: striatal synaptosomes. The procedure:
Inhibition of ^3 H-Dopamine Uptake in Rat Striatal Synaptosomes
this assay is used to show differential drug effects on dopamine uptake versus nerepppinephrine uptake and to identify therapeutic agents for diseases where the potentiation of dopaminergic activity may be helpful (e.g. Parkinson's Disease).
as §1
3. Dopamine HCl is obtained from Sigma Chemical Co. A 0.1 mM stock solution is made up in 0.01 N HCl. This is used to dilute the specific activity of radiolabeled 5 HT.
4. 3,4-[8-^3 H(N)]-Dihydroxyphenylethylamine (Dopamine), specific activity 4-34 Ci/mmol is obtained from New England Nuclear.
The final desired concentration of ^3 H-DA in the assay is 50 nM. The dilution factor is 0.9. Therefore, the KHBB is made up to contain 55.5 nM [^3 H]-5 DA.
as §2
Male Wistar rats are decapitated and the brain rapidly removed. Corpora striata are rapidly removed, weighed and homogenized in 9 volumes of ice-cold 0.32 M sucrose using a Potter-Elvejhem homogenizer. Homogenization should be done with 4-5 up and down strokes at medium speeds to minimize synaptosome lysis. The homogenate is centrifuged at 1000 g for 10 minutes at 0°-4° C. The supernatant (S) is decanted and is used for uptake experiments.
as §3, §4

A further assay has as its system dopamine (DA) uptake. To be noted: cited from earlier work.
The next assay deals with 5 HT uptakes sites. To be noted: in vitro receptor binding, literature; cited from earlier work.
Another assay deals with serotonin (5 HT) uptake. To be noted: literature; cited from earlier work.

As for `CC(COc1ccccc1)N(CCCl)Cc1ccccc1` (centres unmarked) [phenoxybenzarrine], the “NE uptake inhibition” value in assay [1] is recorded as “also inhibited”.

In the case of `COc1cc(C(C)=O)ccc1OCCCN1CCC(N2C(c3ccc(Cl)cc3)c3ccccc3S2(=O)=O)CC1` (centres unmarked) [1-[4-(3-{4-[3-(4-Chlorophenyl)-1,1-dioxo-3H-benzo[d]isothiazol-2-yl]-1-piperidin-1-yl}-propoxy)-3-methoxyphenyl]-ethanone maleate], the “% inhibition NE” value in assay [2] amounted to 55.23%. For the same molecule, the “% inhibition 5HT” value in assay [3] was determined as 48.78%. Further, in assay [4], the “% inhibition DA” value is on record as 67.94%.

Consider `COC(=O)[C@H]1[C@@H](OC(=O)c2ccccc2)C[C@@H]2CC[C@H]1N2C` [cocaine], for which, in assay [1], the “NE uptake inhibition” value is reported as “potently inhibited”. The “DA uptake inhibition” value in the assay with dopamine (DA) uptake (literature) is on record as “potently inhibited”.

As to `C[C@@H](N)Cc1ccccc1` [1-amphetamine], in the assay with dopamine (DA) uptake (literature), the “DA uptake inhibition” value is on record as “no stereo selectivity for the inhibition of DA uptake”.

As for `CC(NC(C)(C)C)C(=O)c1cccc(Cl)c1` (centres unmarked) [bupropion], the “DA uptake inhibition” value in the assay on dopamine (DA) uptake (literature) is listed as “inhibit DA uptake”.

Consider `CNCCCN1c2ccccc2CCc2ccccc21` [desipramine], for which the “NE uptake inhibition” value in assay [1] is recorded as “more active than the tertiary amines (e.g. imipramine)”.

As to `CN(C)CCCN1c2ccccc2CCc2ccccc21` [[^3 H]-imipramine], the “labelling of 5 HT uptake sites” value in the assay on 5 HT uptakes sites was “labels 5 HT uptakes sites”.

Regarding `Cl.O=S1(=O)c2ccccc2C(c2ccc(F)cc2)N1C1CCNCC1` (centres unmarked) [3-(4-Fluorophenyl)-2-(4-piperidinyl)-2,3-dihydrobenzo[d]isothiazole-1,1-dioxide hydrochloride], the “% inhibition NE” value in assay [2] amounted to 25.02%. Moreover, the “% inhibition 5HT” value in assay [3] was found to be 37.92%. In assay [4], the “% inhibition DA” value worked out at 30.34%.

Regarding `O=C(O)/C=C\C(=O)O.O=C1c2ccccc2C(=O)N1CCCN1CCC(N2C(c3ccc(Cl)cc3)c3ccccc3S2(=O)=O)CC1` (centres unmarked) [2-(3-{4-[3-(4-Chlorophenyl)-1,1-dioxo-3H-benzo[d]isothiazol-2-yl]piperidin-1-yl}propyl)-isoindol-1,3-dione maleate], the “% inhibition NE” value in assay [2] is on record as 28.37%. In addition, the “% inhibition 5HT” value in assay [3] was determined as 29.02%. Further, the “% inhibition DA” value in assay [4] is given as 57.36%.

Turning to `O=C(O)/C=C\C(=O)O.O=S1(=O)c2ccccc2C(c2ccc(Cl)cc2)N1C1CCN(CCO)CC1` (centres unmarked) [2-{4-[3(4-Chlorophenyl)-1,1-dioxo-3H-benzo[d]isothiazol-2-yl]-piperidin-1-yl}-ethanol maleate], in assay [2], the “% inhibition NE” value is recorded as 8.71%. For the same molecule, the “% inhibition 5HT” value in assay [3] came out at 3.68%. The “% inhibition DA” value in assay [4] was 18.71%.

On to `CN(C)C/C=C(/c1ccc(Br)cc1)c1cccnc1` [zimelidine], for which the “5 HT uptake inhibition” value with serotonin (5 HT) uptake is recorded as “fairly selective effects on 5 HT uptakes”.

As to `C[C@H](N)Cc1ccccc1` [d-amphetamine], the “DA uptake inhibition” value with dopamine (DA) uptake (literature) is listed as “no stereo selectivity for the inhibition of DA uptake”.

As for `C[C@@H]1O[C@@H](O[C@H]2C[C@@H](O)[C@]3(CO)[C@H]4[C@H](O)C[C@]5(C)[C@@H](C6=CC(=O)OC6)CC[C@]5(O)[C@@H]4CC[C@]3(O)C2)[C@H](O)[C@H](O)[C@H]1O` [ouabain], the “NE uptake inhibition” value in assay [1] was “also inhibited”. The “DA uptake inhibition” value in the assay on dopamine (DA) uptake is “potently inhibited”.
